Data published in article PMC8772704, “Quantification of Fosfomycin in Combination with Nine Antibiotics in Human Plasma and Cation-Adjusted Mueller-Hinton II Broth via LCMS” (Antibiotics, 2022).

Key:
[1] = Autosampler stability at 4 °C of extracted antibiotic-spiked plasma/CAMHB samples; details: for Mean accuracy (%), Table S8 / Mean accuracy (%), Table S10: CAMHB extracted samples; for Mean accuracy (%), Table S8 / Mean accuracy (%), Table S7: 7 h autosampler 4 °C; for Mean accuracy (%), Table S10 / Mean accuracy (%), Table S9: 15 h autosampler 4 °C; for Mean accuracy (%), Table S7 / Mean accuracy (%), Table S9: plasma extracted samples
Procedure: (§1) The stability of fosfomycin in combination with other antibiotics in plasma/CAMHB was evaluated under various operational conditions. Spiked plasma/CAMHB samples were evaluated at 7 h and 15 h in the autosampler at 4 °C. Long-term stability was evaluated up to 4 weeks of antibiotic-spiked plasma/CAMHB samples at LQC, MQC, and HQC concentrations stored at −30 °C and −80 °C.

[2] = 32-day stability of stock solutions stored at −80 °C; assay type: physicochemical; details: stock solution stored at -80 °C; peak area Day 32 vs Day 1
Procedure: Stability of stock solutions
All stock solutions of antibiotics and their corresponding stable-isotope variants were measured prior to cold storage at -80 °C and tested at 32 days later.
Stability was determined by comparing the peak area of each drug between its Day 1 and Day 32 measurement. Acceptable criteria for stability was met if the […]

[3] = Long-term storage stability of antibiotics in combination with fosfomycin spiked in plasma/CAMHB (−30 °C, −80 °C); assay type: physicochemical; details: for Mean accuracy (%), Table S15 / Mean accuracy (%), Table S17 / Mean accuracy (%), Table S16 / Mean accuracy (%), Table S18: CAMHB; for Mean accuracy (%), Table S15 / Mean accuracy (%), Table S17 / Mean accuracy (%), Table S16 / Mean accuracy (%), Table S18 / Mean accuracy (%), Table S11 / Mean accuracy (%), Table S13 / Mean accuracy (%), Table S12 / Mean accuracy (%), Table S14: combination with fosfomycin; for Mean accuracy (%), Table S15 / Mean accuracy (%), Table S11: 2 weeks at -30 °C; for Mean accuracy (%), Table S17 / Mean accuracy (%), Table S13: 2 weeks at -80 °C; for Mean accuracy (%), Table S16 / Mean accuracy (%), Table S12: 4 weeks at -30 °C; for Mean accuracy (%), Table S18 / Mean accuracy (%), Table S14: 4 weeks at -80 °C; for Stability verdict (within ±15% of nominal): CAMHB samples stored at −30 °C
Procedure: as §1

[4] = HQC: nominal mg/L CAZ 150, FEP 200, PIP 250, ATM 300, MEM 200, DOR 175, LVX 30, CEFT 250, TZB 87.5, TGC 20, AVI 30, FOF 1000
[5] = LQC: nominal 1 mg/L (levofloxacin, avibactam 0.5; fosfomycin 10)
[6] = MQC: nominal mg/L CAZ 75, FEP 100, PIP 150, ATM 150, MEM 100, DOR 87.5, LVX 15, CEFT 125, TZB 43.75, TGC 10, AVI 15, FOF 500

Structure (SMILES)	Mean accuracy (%), Table S8 ([1]; HQC (nominal as E15)) [%]	Mean accuracy (%), Table S8 ([1]; LQC (nominal as E13)) [%]	Mean accuracy (%), Table S8 ([1]; MQC (nominal as E14)) [%]	Mean accuracy (%), Table S10 ([1]; HQC (nominal as E15)) [%]	Mean accuracy (%), Table S10 ([1]; LQC (nominal as E13)) [%]	Mean accuracy (%), Table S10 ([1]; MQC (nominal as E14)) [%]	Mean accuracy (%), Table S7 [1, 4] [%]	Mean accuracy (%), Table S7 [1, 5] [%]	Mean accuracy (%), Table S7 [1, 6] [%]	Mean accuracy (%), Table S9 ([1]; HQC (nominal as E15)) [%]	Mean accuracy (%), Table S9 ([1]; LQC (nominal as E13)) [%]	Mean accuracy (%), Table S9 ([1]; MQC (nominal as E14)) [%]	32 Day Stability (%) [2] [%]	Mean accuracy (%), Table S15 ([3]; HQC (nominal as E15)) [%]	Mean accuracy (%), Table S15 ([3]; LQC (nominal as E13)) [%]	Mean accuracy (%), Table S15 ([3]; MQC (nominal as E14)) [%]	Mean accuracy (%), Table S17 ([3]; HQC (nominal as E15)) [%]	Mean accuracy (%), Table S17 ([3]; LQC (nominal as E13)) [%]	Mean accuracy (%), Table S17 ([3]; MQC (nominal as E14)) [%]	Mean accuracy (%), Table S16 ([3]; HQC (nominal as E15)) [%]	further results
CC(C)(O/N=C(\C(=O)N[C@@H]1C(=O)N2C(C(=O)[O-])=C(C[n+]3ccccc3)CS[C@H]12)c1csc(N)n1)C(=O)O [Ceftazidime, ceftazidime]	109.2	110.0	109.0	112.0	107.7	111.0	109.6	94.9	112.0	113.1	93.8	111.5	101.73	97.6	99.2	106.0	103.0	104.3	105.2	100.5	Mean accuracy (%), Table S16 ([3]; LQC (nominal as E13)): 105.0%; Mean accuracy (%), Table S16 ([3]; MQC (nominal as E14)): 100.4%; Mean accuracy (%), Table S18 ([3]; HQC (nominal as E15)): 103.8%; Mean accuracy (%), Table S18 ([3]; LQC (nominal as E13)): 103.5%; Mean accuracy (%), Table S18 ([3]; MQC (nominal as E14)): 106.4%; Mean accuracy (%), Table S11 ([3]; plasma, HQC (nominal as E15)): 99.5%; Mean accuracy (%), Table S11 ([3]; plasma, LQC (nominal as E13)): 97.8%; Mean accuracy (%), Table S11 ([3]; plasma, MQC (nominal as E14)): 105.0%; Mean accuracy (%), Table S13 ([3]; plasma, HQC (nominal as E15)): 99.4%; Mean accuracy (%), Table S13 ([3]; plasma, LQC (nominal as E13)): 102.6%; Mean accuracy (%), Table S13 ([3]; plasma, MQC (nominal as E14)): 101.0%; Mean accuracy (%), Table S12 ([3]; plasma, HQC (nominal as E15)): 100.3%; Mean accuracy (%), Table S12 ([3]; plasma, LQC (nominal as E13)): 100.3%; Mean accuracy (%), Table S12 ([3]; plasma, MQC (nominal as E14)): 105.0%; Mean accuracy (%), Table S14 ([3]; plasma, HQC (nominal as E15)): 107.7%; Mean accuracy (%), Table S14 ([3]; plasma, LQC (nominal as E13)): 98.8%; Mean accuracy (%), Table S14 ([3]; plasma, MQC (nominal as E14)): 103.0%
C[C@H]1COc2c(N3CCN(C)CC3)c(F)cc3c(=O)c(C(=O)O)cn1c23 [Levofloxacin, levofloxacin]	98.8	113.0	103.4	99.5	112.8	103.9	101.3	110.7	105.2	103.6	114.0	106.1	98.42								
C[C@@H](O)[C@H]1C(=O)N2C(C(=O)O)=C(S[C@@H]3CN[C@H](CNS(N)(=O)=O)C3)[C@H](C)[C@H]12 [Doripenem, doripenem]	103.1	104.8	105.2	103.0	108.0	111.3	98.9	104.0	100.7				99.13	82.4	73.1	77.1	100.1	104.0	103.9	64.1	Stability verdict (within ±15% of nominal) ([3]; 2 weeks): instability; Stability verdict (within ±15% of nominal) ([3]; 4 weeks): instability; Mean accuracy (%), Table S16 ([3]; LQC (nominal as E13)): 64.6%; Mean accuracy (%), Table S16 ([3]; MQC (nominal as E14)): 60.6%; Mean accuracy (%), Table S18 ([3]; HQC (nominal as E15)): 105.8%; Mean accuracy (%), Table S18 ([3]; LQC (nominal as E13)): 99.1%; Mean accuracy (%), Table S18 ([3]; MQC (nominal as E14)): 104.7%; Mean accuracy (%), Table S11 ([3]; plasma, HQC (nominal as E15)): 98.0%; Mean accuracy (%), Table S11 ([3]; plasma, LQC (nominal as E13)): 91.0%; Mean accuracy (%), Table S11 ([3]; plasma, MQC (nominal as E14)): 97.0%; Mean accuracy (%), Table S13 ([3]; plasma, HQC (nominal as E15)): 98.3%; Mean accuracy (%), Table S13 ([3]; plasma, LQC (nominal as E13)): 100.6%; Mean accuracy (%), Table S13 ([3]; plasma, MQC (nominal as E14)): 96.9%; Mean accuracy (%), Table S12 ([3]; plasma, HQC (nominal as E15)): 102.4%; Mean accuracy (%), Table S12 ([3]; plasma, LQC (nominal as E13)): 100.0%; Mean accuracy (%), Table S12 ([3]; plasma, MQC (nominal as E14)): 103.1%; Mean accuracy (%), Table S14 ([3]; plasma, HQC (nominal as E15)): 106.3%; Mean accuracy (%), Table S14 ([3]; plasma, LQC (nominal as E13)): 99.2%; Mean accuracy (%), Table S14 ([3]; plasma, MQC (nominal as E14)): 106.9%
CCN1CCN(C(=O)N[C@@H](C(=O)N[C@@H]2C(=O)N3[C@@H]2SC(C)(C)[C@@H]3C(=O)O)c2ccccc2)C(=O)C1=O [Piperacillin, piperacillin]	89.6	113.7	86.7	90.6	112.7	87.6	87.5	109.5	84.0	89.6	109.9	86.8	100.48	89.0	106.0	89.5	89.6	111.6	92.6	69.6	Stability verdict (within ±15% of nominal) ([3]; 4 weeks): instability; Mean accuracy (%), Table S16 ([3]; LQC (nominal as E13)): 90.6%; Mean accuracy (%), Table S16 ([3]; MQC (nominal as E14)): 67.5%; Mean accuracy (%), Table S18 ([3]; HQC (nominal as E15)): 87.6%; Mean accuracy (%), Table S18 ([3]; LQC (nominal as E13)): 109.4%; Mean accuracy (%), Table S18 ([3]; MQC (nominal as E14)): 90.6%; Stability data ([3]; plasma, 2-week and 4-week intervals): 86–88%; Mean accuracy (%), Table S11 ([3]; plasma, HQC (nominal as E15)): 88.5%; Mean accuracy (%), Table S11 ([3]; plasma, LQC (nominal as E13)): 112.6%; Mean accuracy (%), Table S11 ([3]; plasma, MQC (nominal as E14)): 92.7%; Mean accuracy (%), Table S13 ([3]; plasma, HQC (nominal as E15)): 88.6%; Mean accuracy (%), Table S13 ([3]; plasma, LQC (nominal as E13)): 109.5%; Mean accuracy (%), Table S13 ([3]; plasma, MQC (nominal as E14)): 93.0%; Mean accuracy (%), Table S12 ([3]; plasma, LQC (nominal as E13)): 106.0%; Mean accuracy (%), Table S14 ([3]; plasma, LQC (nominal as E13)): 111.6%
Cn1c(N)c(NC(=O)NCCN)c[n+]1CC1=C(C(=O)O)N2C(=O)[C@@H](NC(=O)/C(=N\OC(C)(C)C(=O)[O-])c3nsc(N)n3)[C@H]2SC1 [Ceftolozane, ceftolozane]	113.3	106.4	109.8	112.0	107.2	111.3	105.1	106.0	97.2	101.0	97.5	90.0	107.69	93.2	91.3	94.7	94.1	91.4	94.3	90.8	Mean accuracy (%), Table S16 ([3]; LQC (nominal as E13)): 86.1%; Mean accuracy (%), Table S16 ([3]; MQC (nominal as E14)): 90.4%; Mean accuracy (%), Table S18 ([3]; HQC (nominal as E15)): 93.9%; Mean accuracy (%), Table S18 ([3]; LQC (nominal as E13)): 87.5%; Mean accuracy (%), Table S18 ([3]; MQC (nominal as E14)): 96.2%; Mean accuracy (%), Table S11 ([3]; plasma, HQC (nominal as E15)): 86.5%; Mean accuracy (%), Table S11 ([3]; plasma, LQC (nominal as E13)): 86.9%; Mean accuracy (%), Table S11 ([3]; plasma, MQC (nominal as E14)): 86.4%; Mean accuracy (%), Table S13 ([3]; plasma, HQC (nominal as E15)): 86.3%; Mean accuracy (%), Table S13 ([3]; plasma, LQC (nominal as E13)): 91.1%; Mean accuracy (%), Table S13 ([3]; plasma, MQC (nominal as E14)): 87.7%; Mean accuracy (%), Table S12 ([3]; plasma, HQC (nominal as E15)): 99.3%; Mean accuracy (%), Table S12 ([3]; plasma, LQC (nominal as E13)): 99.0%; Mean accuracy (%), Table S12 ([3]; plasma, MQC (nominal as E14)): 98.6%; Mean accuracy (%), Table S14 ([3]; plasma, HQC (nominal as E15)): 100.8%; Mean accuracy (%), Table S14 ([3]; plasma, LQC (nominal as E13)): 89.3%; Mean accuracy (%), Table S14 ([3]; plasma, MQC (nominal as E14)): 98.0%
